Measured values: ChEMBL document CHEMBL1156426, “Structure-based inhibitor design for an enzyme that binds different steroids: a potent inhibitor for human type 5 17beta-hydroxysteroid dehydrogenase” (J Biol Chem, 2007)

How the values were obtained:
[1] = molecular target: T1, Aldo-keto reductase family 1 member C3 (Homo sapiens, UniProt P42330); test: Inhibition of human 17beta HSD5 in HEK cells; type: cell-based, HEK293
T1 sequence (P42330 whole entry): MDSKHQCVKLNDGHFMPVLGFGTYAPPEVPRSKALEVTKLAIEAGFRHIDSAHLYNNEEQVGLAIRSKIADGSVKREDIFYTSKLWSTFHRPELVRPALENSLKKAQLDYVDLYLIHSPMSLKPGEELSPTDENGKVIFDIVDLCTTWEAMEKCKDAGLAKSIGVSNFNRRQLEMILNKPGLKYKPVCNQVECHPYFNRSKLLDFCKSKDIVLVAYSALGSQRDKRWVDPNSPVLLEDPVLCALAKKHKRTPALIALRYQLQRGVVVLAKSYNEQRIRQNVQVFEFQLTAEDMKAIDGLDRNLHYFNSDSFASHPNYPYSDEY

[2] = molecular target: T1, Aldo-keto reductase family 1 member C3; test: Inhibition of human 17beta HSD5 mediated conversion of testosterone to delta-4-androstene-3,17-dione

| Compound | IC50 [1] [nM] | Ki [2] [nM] |
| --- | --- | --- |
| COCCOc1cc2c(cc1OC(N)=O)[C@H]1CC[C@@]3(C)[C@@H](CC[C@@]34CCC(C)(C)C(=O)O4)[C@@H]1CC2 | 9.5 |  |
| CC1(C)CC[C@@]2(CC[C@H]3[C@@H]4CCc5cc(C(N)=O)ccc5[C@H]4CC[C@@]32C)OC1=O | 3.2 | 6.9 |
| COCCOc1cc2c(cc1C#N)[C@H]1CC[C@@]3(C)[C@@H](CC[C@@]34CCC(C)(C)C(=O)O4)[C@@H]1CC2 [EM1396] | 13 |  |
